Results published in patent US10464902B1, “Multi-tyrosine kinase inhibitors derivatives and methods of use” (Ontogenesis, LLC, priority 2015, dated 2019).
Read-outs that look alike come from different tables or passages of the source.

Legend:
[1] = molecular target: T1, VEGFR2 (Homo sapiens (Human), UniProt P35968); settings: human umbilical vein endothelial cells; cited from earlier work
Target sequence in this assay (P35968 20-1356): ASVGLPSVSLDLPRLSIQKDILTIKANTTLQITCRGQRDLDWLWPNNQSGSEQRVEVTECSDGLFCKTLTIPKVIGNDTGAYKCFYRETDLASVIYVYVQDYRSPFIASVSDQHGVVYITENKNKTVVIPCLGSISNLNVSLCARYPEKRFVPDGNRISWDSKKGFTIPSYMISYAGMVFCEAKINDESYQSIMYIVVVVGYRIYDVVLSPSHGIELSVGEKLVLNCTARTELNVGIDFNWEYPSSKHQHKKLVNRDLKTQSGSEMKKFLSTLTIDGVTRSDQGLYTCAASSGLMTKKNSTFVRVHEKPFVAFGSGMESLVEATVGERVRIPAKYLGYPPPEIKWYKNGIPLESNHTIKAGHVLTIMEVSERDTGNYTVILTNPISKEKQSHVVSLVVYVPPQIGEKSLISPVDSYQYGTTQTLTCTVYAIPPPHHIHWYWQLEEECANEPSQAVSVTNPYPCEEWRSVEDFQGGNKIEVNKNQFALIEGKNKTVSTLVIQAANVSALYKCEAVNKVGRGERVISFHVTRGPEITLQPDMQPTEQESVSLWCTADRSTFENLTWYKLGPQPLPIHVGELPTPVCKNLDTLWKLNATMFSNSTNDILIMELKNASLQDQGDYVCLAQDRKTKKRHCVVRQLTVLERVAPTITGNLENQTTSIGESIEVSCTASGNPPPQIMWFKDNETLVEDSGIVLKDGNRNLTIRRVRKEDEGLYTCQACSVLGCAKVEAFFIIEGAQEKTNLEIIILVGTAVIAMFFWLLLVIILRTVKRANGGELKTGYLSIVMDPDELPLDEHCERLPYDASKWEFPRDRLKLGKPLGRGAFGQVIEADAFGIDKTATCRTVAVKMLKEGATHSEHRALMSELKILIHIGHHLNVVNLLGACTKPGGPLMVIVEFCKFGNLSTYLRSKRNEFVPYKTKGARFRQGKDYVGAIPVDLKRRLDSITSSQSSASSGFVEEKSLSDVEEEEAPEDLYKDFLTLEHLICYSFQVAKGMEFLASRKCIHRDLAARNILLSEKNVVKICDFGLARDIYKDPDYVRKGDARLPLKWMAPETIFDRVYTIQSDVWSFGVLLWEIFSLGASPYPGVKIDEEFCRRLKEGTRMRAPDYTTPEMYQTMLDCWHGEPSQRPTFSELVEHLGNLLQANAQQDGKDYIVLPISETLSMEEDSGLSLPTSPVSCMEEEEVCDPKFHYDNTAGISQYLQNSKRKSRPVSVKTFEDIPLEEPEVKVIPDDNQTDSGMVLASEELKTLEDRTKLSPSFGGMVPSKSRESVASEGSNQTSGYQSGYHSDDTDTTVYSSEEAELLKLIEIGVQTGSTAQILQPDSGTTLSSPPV

[2] = system: VEGFR; settings: read-out: IC50 (concentration required for efficacy); cited from earlier work
[3] = Residence in the vitreous humor; assay type: in vivo; settings: estimated for its molecular weight
[4] = molecular target: T1, VEGFR2; settings: HUVEC, in vitro angiogenic assays; read-out: IC50 VEGFR2 inhibition; cited from earlier work
[5] = system: intraocular proliferative retinopathy; test: Virtual discovery: intravitreal injection, intraocular proliferative retinopathy; assay type: in vivo
From the text: With the onset of proliferative retinopathy however conventional anti-VEGF therapy causes increased fibrosis. Van Geest R. J. et al., A shift in the balance of vascular endothelial growth factor and connective tissue growth factor by bevacizumab causes the angiofibrotic switch in proliferative diabetic retinopathy Br J Ophthalmol, 2012 April, 96(4), 587-90. […]. The suppression of intraocular proliferative retinopathy in turn suppresses fibrotic induction and the most severe manifestations of proliferative eye disease. This suppression also is virtually discovered to occur when the methyl of the preferred embodiments is replaced by any alkyl group. […]. As diabetic macular edema is amenable to anti-VEGF therapy, its use in patients with preproliferative severe peripheral ischemic disease, and or patients with early proliferative disease may enhance the onset of fibrovascular proliferative morbidity, whereas the present invention using MTKIs combining VEGF suppression with c-MET suppression may both reduce diabetic macular edema and suppress diabetic fibrovascular proliferation.

[6] = system: VEGFR; test: Virtual discovery: suppression of VEGFR; settings: virtually discovered
[7] = system: subretinal choroidal neovascularization (CNV); test: Subretinal choroidal neovascularization model after intravitreal injection (virtual example); assay type: in vivo, mammal (preferably a pigmented rabbit or a primate); settings: intravitreal 50 uL, 10-20 mg/mL
Method: The first solution was then added to a saturated fatty acid (e.g. octanoic acid) combined with lecithin or lecithin derivatives (e.g. phosphatidyl choline), a glycerol fatty acid ester (e.g. propylene glycol fatty acid esters such as polyoxyethyleneglycerol triricinoleate), a sorbitan fatty acid ester (e.g. Span® 20, Span® 80) or a olyoxylethylene sorbitan fatty acid ester (e.g. Tween® 20, Tween® 80), and optionally a co-surfactant (e.g. propylene glycol, glycerol, PEG 400, 1,2-propanediol), which were then solubilized as a microemulsion using commercial lipoemulsion techniques (e.g. Intralipid®, Abbolipid). […] 50 uL of either Lucentis® or Eylea® was administered into the remaining eye of the mammal. 2 weeks after administration a subretinal choroidal neovascularization (CNV) was caused in the eyes of the mammal using techniques explained in Qui G et al., A new model of experimental subretinal neovascularization in the rabbit, Exp Eye Res, 2006 July, 83(1), 141-152. 6 weeks after subretinal CNV eyes of the mammal were sacrificed for examination.

With `Cn1cnc(-c2cc3nccc(Oc4ccc(NC(=S)NC(=O)Cc5ccccc5)cc4F)c3s2)c1` [MGCD-265] as the molecule, how does the IC50 [1] read?
Its IC50 is 3 nM.

Which IC50 [2] does the source give for ranibizumab [Lucentis] here?
Its IC50 is roughly 19 nM.

With `Cc1ccc(Nc2nccc(N(C)c3ccc4c(C)n(C)nc4c3)n2)cc1S(N)(=O)=O` [pazopantinib, Pazopantinib] as the molecule, how does the intravitreal clearance [3] read?
Its intravitreal clearance is “within hours”.

For bevacizumab [Avastin], which IC50 [4] is on record?
The IC50 was roughly 1.4 nM.

What does the source list for `CCCCCCCCCCCCCCCC(=O)OC[n+]1ccc(Oc2ccc(NC(=O)C3(C(=O)Nc4ccc(F)cc4)CC3)cc2)c2cc(OC)c(OC)cc21` [Cabozantinib N-acyl methyl palmitate]?
suppression of intraocular proliferative retinopathy [5]: suppress intraocular proliferative retinopathy; suppression of VEGFR [6]: suppress; suppression of macular edema [7]: long-lasting suppression of macular edema; suppression of fibrovascular proliferation ([7]; vs Lucentis or Eylea in the other eye, CNV 2 weeks after dosing, examined 6 weeks later): Greater suppression of fibrovascular proliferation

For foretinib N-acyl methyl palmitate, which “suppression of intraocular proliferative retinopathy” value [5] is on record?
The value was “suppress intraocular proliferative retinopathy”.
